Measured values reported in patent US20240147927A1, “METHODS OF HIGH PRODUCTION OF POLYPHENOLS FROM RED LETTUCES AND USES THEREOF” (SignalChem Plantech Corporation, priority 2021, published 2024).

Assays:
Jurkat cells = assay type: cell-based
THP1 cells = assay type: cell-based
MCF7 cells = assay type: cell-based
[1] = system: IL-6 production in PMA-differentiated THP1 macrophages; test: IL-6 production in LPS treated PMA-differentiated THP1 macrophages (ELISA); assay type: cell-based, human; details: 1.23, 3.7, 11.11, 33.33 and 100 μg/mL, then LPS 48 h
Description: (§1) Methods: […] THP1 monocytes were differentiated to macrophages using phorbol 12-myristate 13-acetate (PMA, Sigma, P1585). The […] The culture supernatant was collected from each well and replaced with 100 μl of fresh 1% FBS medium. […] 50 μl of cultured supernatant was used for measuring TNF-α and IL6 concentration. TNF-α was measured using human TNF-α DuoSet ELISA kit (R&D systems, DY210-05) and IL6 was determined using human IL6 DuoSet ELISA kit (R&D systems, DY206-05) according to the manufacturer's instructions. […] THP1 monocytes were differentiated to macrophages as previously described. […] Untreated cells were used as the control. After incubation, cell cultures were then stimulated with LPS for an additional 48 h (total volume of 200 μL per well). The culture supernatant was collected from each well and replaced with 100 μL of fresh 1% FBS medium. […] 50 μl of cultured supernatant was used for measuring TNF-α and IL6 concentration. TNF-α was measured using human TNF-α DuoSet ELISA kit and IL6 was determined using human IL6 DuoSet ELISA kit according to the manufacturer's instructions.

[2] = system: TNF-α production in PMA-differentiated THP1 macrophages; test: TNF-α production in LPS treated PMA-differentiated THP1 macrophages (ELISA); assay type: cell-based, human; details: 1.23, 3.7, 11.11, 33.33 and 100 μg/mL, then LPS 48 h
Description: as §1

[3] = system: nitric oxide (NO) production in PMA-differentiated THP1 macrophages; test: Nitric oxide (NO) production in LPS treated PMA-differentiated THP1 macrophages; assay type: cell-based, human; details: pre-treatment 2 h, then LPS 48 h
Description: Methods: […] Total nitrite was measured using nitric oxide colorimetric assay kit (BioVision, […]-200) according to the manufacturer's instructions. […] Untreated cells were used as the control. After incubation, cell cultures were then stimulated with LPS for an additional 48 h (total volume of 200 μl per well). The culture supernatant was collected from each well and replaced with 100 μl of fresh 1% FBS medium. […] 42.5 μL of cultured supernatant was used for measuring nitrite concentration. Total nitrite was measured using nitric oxide colorimetric assay kit according to the manufacturer's instructions.

Row | Compound | Jurkat, TC50 (Jurkat cells) [µg/mL] | cytotoxicity towards THP1 cell-line (THP1 cells) | cytotoxicity towards MCF7 cell-line (MCF7 cells) | effect on secretion of IL-6 [1] | effect on secretion of TNF-α [2] | NO, EC50 [3] [µg/mL]
1 | OC[C@H]1O[C@@H](Oc2cc3c(O)cc(O)cc3[o+]c2-c2ccc(O)c(O)c2)[C@H](O)[C@@H](O)[C@H]1O [Cyanidin 3-galactoside, cyanidin 3-galactoside] | 53.5 | did not appear to be individually cytotoxic | did not appear to be individually cytotoxic | minimal effects | minimal effects | 98.4
2 | O=C(/C=C/c1ccc(O)c(O)c1)O[C@@H]1C[C@](O)(C(=O)O)C[C@@H](O)[C@H]1O [Neochlorogenic acid, 3-O-caffeoylquinic acid] |  |  |  | minimal effects | minimal effects | 80.5
3 | O=C(/C=C/c1ccc(O)c(O)c1)O[C@H]1[C@H](O)C[C@](O)(C(=O)O)C[C@H]1O [4-CQA, 4-O-caffeoylquinic acid] | 49.9 | did not appear to be individually cytotoxic | did not appear to be individually cytotoxic | minimal effects | minimal effects | 71.9
4 | O=C(C=Cc1ccc(O)c(O)c1)O[C@@H](C(=O)O)[C@@H](OC(=O)C=Cc1ccc(O)c(O)c1)C(=O)O [Chicoric acid, (2R,3R)-O-dicaffeoyltartaric acid] |  |  |  | minimal effects | minimal effects | 25.3
